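All cell lines were grown in 96-well plates and treated with compound for 48 hours. TGI: concentration producing complete growth inhibition.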
Experiments:
Test in all cases: NCI anticancer screen, dose series, 48 h
SR leukemia = system: SR leukemia
A498 renal = system: A498 renal
NCI-H522 lung = system: NCI-H522 lung
SN12C renal = system: SN12C renal
IGROV1 ovarian = system: IGROV1 ovarian
HT29 colon = system: HT29 colon
HCT-116 colon = system: HCT-116 colon
UACC-257 melanoma = system: UACC-257 melanoma
SK-MEL-28 melanoma = system: SK-MEL-28 melanoma
UACC-62 melanoma = system: UACC-62 melanoma
MDA-MB-435 = system: MDA-MB-435
SF-268 CNS = system: SF-268 CNS
SNB-19 CNS = system: SNB-19 CNS
MOLT-4 leukemia = system: MOLT-4 leukemia
NCI-H23 lung = system: NCI-H23 lung
ACHN renal = system: ACHN renal
HCC-2998 colon = system: HCC-2998 colon
U251 CNS = system: U251 CNS
LOX IMVI melanoma = system: LOX IMVI melanoma
HL-60(TB) leukemia = system: HL-60(TB) leukemia

## CC(C)c1ccc2[nH]c(O)c(C3=Nc4ccccc4C3=O)c2c1
SR leukemia
  TGI: 54.5 µM
A498 renal
  TGI: 5.5 µM
NCI-H522 lung
  TGI: 97 µM
SN12C renal
  TGI: > 100 µM
IGROV1 ovarian
  TGI: 65.8 µM
HT29 colon
  TGI: > 100 µM
HCT-116 colon
  TGI: 68 µM
UACC-257 melanoma
  TGI: > 100 µM
SK-MEL-28 melanoma
  TGI: > 100 µM
UACC-62 melanoma
  TGI: 69.8 µM
MDA-MB-435
  TGI: > 100 µM
SF-268 CNS
  TGI: > 100 µM
SNB-19 CNS
  TGI: 57.2 µM
MOLT-4 leukemia
  TGI: 61.5 µM
NCI-H23 lung
  TGI: > 100 µM
ACHN renal
  TGI: 18.6 µM
HCC-2998 colon
  TGI: > 100 µM
U251 CNS
  TGI: 41.4 µM
LOX IMVI melanoma
  TGI: > 100 µM

## Clc1ccccc1-c1nnc2c(-c3ccccc3)nc3ccccc3n12
SR leukemia
  TGI: > 100 µM
A498 renal
  TGI: > 100 µM
SN12C renal
  TGI: > 100 µM
IGROV1 ovarian
  TGI: > 100 µM
HT29 colon
  TGI: > 100 µM
HCT-116 colon
  TGI: > 100 µM
UACC-257 melanoma
  TGI: > 100 µM
SK-MEL-28 melanoma
  TGI: > 100 µM
UACC-62 melanoma
  TGI: > 100 µM
MDA-MB-435
  TGI: > 100 µM
HL-60(TB) leukemia
  TGI: > 100 µM
SF-268 CNS
  TGI: > 100 µM
SNB-19 CNS
  TGI: > 100 µM
MOLT-4 leukemia
  TGI: > 100 µM
NCI-H23 lung
  TGI: > 100 µM
ACHN renal
  TGI: > 100 µM
HCC-2998 colon
  TGI: > 100 µM
U251 CNS
  TGI: > 100 µM
LOX IMVI melanoma
  TGI: > 100 µM

## CN(C)CCCNc1ccc2nnn3c4ccc(OC(=O)c5ccc([N+](=O)[O-])cc5)cc4c(=O)c1c23
SR leukemia
  TGI: 11.5 µM
A498 renal
  TGI: 49.1 µM
NCI-H522 lung
  TGI: 24 µM
SN12C renal
  TGI: 19.6 µM
IGROV1 ovarian
  TGI: > 100 µM
HT29 colon
  TGI: 20.6 µM
HCT-116 colon
  TGI: 32.7 µM
UACC-257 melanoma
  TGI: 31 µM
SK-MEL-28 melanoma
  TGI: 26.6 µM
UACC-62 melanoma
  TGI: 37 µM
MDA-MB-435
  TGI: 20.2 µM
SF-268 CNS
  TGI: 21.9 µM
SNB-19 CNS
  TGI: 22.8 µM
MOLT-4 leukemia
  TGI: 33.2 µM
NCI-H23 lung
  TGI: 24.5 µM
ACHN renal
  TGI: 14.1 µM
HCC-2998 colon
  TGI: 25.5 µM
U251 CNS
  TGI: 33.9 µM
LOX IMVI melanoma
  TGI: > 100 µM

## O=C(CN1CCOCC1)Nc1ccc2c(c1)C1Oc3ccccc3CC1CO2 (stereo not drawn)
SR leukemia
  TGI: > 100 µM
A498 renal
  TGI: > 100 µM
NCI-H522 lung
  TGI: > 100 µM
SN12C renal
  TGI: > 100 µM
IGROV1 ovarian
  TGI: > 100 µM
HT29 colon
  TGI: > 100 µM
HCT-116 colon
  TGI: > 100 µM
UACC-257 melanoma
  TGI: > 100 µM
UACC-62 melanoma
  TGI: > 100 µM
MDA-MB-435
  TGI: > 100 µM
SF-268 CNS
  TGI: > 100 µM
SNB-19 CNS
  TGI: > 100 µM
MOLT-4 leukemia
  TGI: > 100 µM
NCI-H23 lung
  TGI: > 100 µM
ACHN renal
  TGI: > 100 µM
HCC-2998 colon
  TGI: > 100 µM
U251 CNS
  TGI: > 100 µM
LOX IMVI melanoma
  TGI: > 100 µM

## CCOC(=O)c1nc2ccccc2nc1Oc1ccc(OC)cc1
SR leukemia
  TGI: > 100 µM
A498 renal
  TGI: > 100 µM
NCI-H522 lung
  TGI: > 100 µM
SN12C renal
  TGI: > 100 µM
IGROV1 ovarian
  TGI: > 100 µM
HT29 colon
  TGI: > 100 µM
HCT-116 colon
  TGI: > 100 µM
UACC-257 melanoma
  TGI: > 100 µM
SK-MEL-28 melanoma
  TGI: > 100 µM
UACC-62 melanoma
  TGI: > 100 µM
MDA-MB-435
  TGI: > 100 µM
HL-60(TB) leukemia
  TGI: > 100 µM
SF-268 CNS
  TGI: > 100 µM
SNB-19 CNS
  TGI: > 100 µM
MOLT-4 leukemia
  TGI: > 100 µM
ACHN renal
  TGI: > 100 µM
U251 CNS
  TGI: > 100 µM
LOX IMVI melanoma
  TGI: > 100 µM

## C/C(=N/NC(=S)NCCc1ccccn1)c1cnccn1
SR leukemia
  TGI: 65.9 µM
NCI-H522 lung
  TGI: > 100 µM
SN12C renal
  TGI: 74.7 µM
IGROV1 ovarian
  TGI: > 100 µM
HT29 colon
  TGI: > 100 µM
HCT-116 colon
  TGI: > 100 µM
UACC-257 melanoma
  TGI: > 100 µM
SK-MEL-28 melanoma
  TGI: > 100 µM
UACC-62 melanoma
  TGI: 64.1 µM
MDA-MB-435
  TGI: > 100 µM
SF-268 CNS
  TGI: > 100 µM
SNB-19 CNS
  TGI: > 100 µM
MOLT-4 leukemia
  TGI: 41.4 µM
NCI-H23 lung
  TGI: > 100 µM
ACHN renal
  TGI: > 100 µM
HCC-2998 colon
  TGI: > 100 µM
U251 CNS
  TGI: > 100 µM
LOX IMVI melanoma
  TGI: 40.1 µM

## Nc1ncc(CN2CCOCC2)c(-c2ccccc2O)n1
SR leukemia
  TGI: > 100 µM
A498 renal
  TGI: > 100 µM
SN12C renal
  TGI: > 100 µM
IGROV1 ovarian
  TGI: > 100 µM
HT29 colon
  TGI: > 100 µM
HCT-116 colon
  TGI: > 100 µM
UACC-257 melanoma
  TGI: > 100 µM
SK-MEL-28 melanoma
  TGI: > 100 µM
UACC-62 melanoma
  TGI: > 100 µM
MDA-MB-435
  TGI: > 100 µM
HL-60(TB) leukemia
  TGI: > 100 µM
SF-268 CNS
  TGI: > 100 µM
MOLT-4 leukemia
  TGI: > 100 µM
NCI-H23 lung
  TGI: > 100 µM
ACHN renal
  TGI: > 100 µM
U251 CNS
  TGI: > 100 µM
LOX IMVI melanoma
  TGI: > 100 µM

## COc1ccc2nc3ccc(OC)cc3c(SCC3CO3)c2c1 (stereo not drawn)
SR leukemia
  TGI: 80.4 µM
A498 renal
  TGI: > 100 µM
NCI-H522 lung
  TGI: 33.2 µM
SN12C renal
  TGI: 27.4 µM
HCT-116 colon
  TGI: 22.7 µM
UACC-257 melanoma
  TGI: 29.8 µM
SK-MEL-28 melanoma
  TGI: 33.5 µM
MDA-MB-435
  TGI: 40 µM
SF-268 CNS
  TGI: 31.6 µM
SNB-19 CNS
  TGI: 80.4 µM
NCI-H23 lung
  TGI: 35.4 µM
ACHN renal
  TGI: 21.7 µM
HCC-2998 colon
  TGI: 29.7 µM
U251 CNS
  TGI: 27.1 µM
LOX IMVI melanoma
  TGI: 33.4 µM

## COc1ccc(NS(=O)c2ccc(OC)cc2)cc1 (stereo not drawn)
SR leukemia
  TGI: > 100 µM
NCI-H522 lung
  TGI: > 100 µM
SN12C renal
  TGI: > 100 µM
IGROV1 ovarian
  TGI: 99.4 µM
HT29 colon
  TGI: > 100 µM
HCT-116 colon
  TGI: > 100 µM
UACC-257 melanoma
  TGI: > 100 µM
SK-MEL-28 melanoma
  TGI: > 100 µM
UACC-62 melanoma
  TGI: 66.2 µM
MDA-MB-435
  TGI: > 100 µM
HL-60(TB) leukemia
  TGI: > 100 µM
SF-268 CNS
  TGI: 74.4 µM
SNB-19 CNS
  TGI: > 100 µM
MOLT-4 leukemia
  TGI: > 100 µM
NCI-H23 lung
  TGI: > 100 µM
ACHN renal
  TGI: > 100 µM
HCC-2998 colon
  TGI: > 100 µM
U251 CNS
  TGI: 34.2 µM
LOX IMVI melanoma
  TGI: > 100 µM

## CC(=O)N1N=C(c2c(O)ccc3ccccc23)CC1c1ccc(Cl)cc1 (stereo not drawn)
SR leukemia
  TGI: 28.3 µM
A498 renal
  TGI: 66.3 µM
NCI-H522 lung
  TGI: > 100 µM
SN12C renal
  TGI: 39.3 µM
IGROV1 ovarian
  TGI: 63.9 µM
HT29 colon
  TGI: 69.5 µM
HCT-116 colon
  TGI: 28.4 µM
UACC-257 melanoma
  TGI: > 100 µM
SK-MEL-28 melanoma
  TGI: 74 µM
UACC-62 melanoma
  TGI: 27.6 µM
MDA-MB-435
  TGI: 51.9 µM
SF-268 CNS
  TGI: > 100 µM
MOLT-4 leukemia
  TGI: 31 µM
NCI-H23 lung
  TGI: 46.5 µM
ACHN renal
  TGI: > 100 µM
HCC-2998 colon
  TGI: 34 µM
U251 CNS
  TGI: 63.1 µM

## O=[N+]([O-])/C=C/COCc1cc2c(cc1Br)OCO2
SR leukemia
  TGI: 54.1 µM
A498 renal
  TGI: 86.4 µM
NCI-H522 lung
  TGI: 50.7 µM
SN12C renal
  TGI: 35.7 µM
IGROV1 ovarian
  TGI: > 100 µM
HT29 colon
  TGI: 45.4 µM
HCT-116 colon
  TGI: 34.1 µM
UACC-257 melanoma
  TGI: 33.3 µM
SK-MEL-28 melanoma
  TGI: 25.4 µM
UACC-62 melanoma
  TGI: 30.1 µM
MDA-MB-435
  TGI: 27.1 µM
SF-268 CNS
  TGI: 41.4 µM
MOLT-4 leukemia
  TGI: > 100 µM
ACHN renal
  TGI: 30 µM
HCC-2998 colon
  TGI: 34.2 µM
U251 CNS
  TGI: 30.7 µM
LOX IMVI melanoma
  TGI: > 100 µM

## Cc1csc2nc3[nH]ncc3c(=O)n12
SR leukemia
  TGI: > 100 µM
NCI-H522 lung
  TGI: > 100 µM
SN12C renal
  TGI: > 100 µM
IGROV1 ovarian
  TGI: > 100 µM
HT29 colon
  TGI: > 100 µM
HCT-116 colon
  TGI: > 100 µM
UACC-257 melanoma
  TGI: > 100 µM
SK-MEL-28 melanoma
  TGI: > 100 µM
UACC-62 melanoma
  TGI: > 100 µM
MDA-MB-435
  TGI: > 100 µM
SF-268 CNS
  TGI: > 100 µM
SNB-19 CNS
  TGI: > 100 µM
MOLT-4 leukemia
  TGI: > 100 µM
NCI-H23 lung
  TGI: > 100 µM
ACHN renal
  TGI: > 100 µM
HCC-2998 colon
  TGI: > 100 µM
U251 CNS
  TGI: > 100 µM
LOX IMVI melanoma
  TGI: > 100 µM

## CC(C)(C)c1cc(C(=O)/C=C/c2ccc3c(c2)CCO3)cc(C(C)(C)C)c1O
SR leukemia
  TGI: 7.39 µM
A498 renal
  TGI: 24.4 µM
NCI-H522 lung
  TGI: 2.16 µM
SN12C renal
  TGI: > 33.9 µM
IGROV1 ovarian
  TGI: > 100 µM
HT29 colon
  TGI: > 27.2 µM
HCT-116 colon
  TGI: > 33.7 µM
SK-MEL-28 melanoma
  TGI: > 100 µM
UACC-62 melanoma
  TGI: 29.6 µM
MDA-MB-435
  TGI: 0.91 µM
HL-60(TB) leukemia
  TGI: 5.53 µM
SF-268 CNS
  TGI: 24.5 µM
SNB-19 CNS
  TGI: > 82.3 µM
MOLT-4 leukemia
  TGI: > 31.3 µM
NCI-H23 lung
  TGI: > 24.5 µM
ACHN renal
  TGI: > 100 µM
HCC-2998 colon
  TGI: 3.8 µM
U251 CNS
  TGI: 3.17 µM
LOX IMVI melanoma
  TGI: > 100 µM
